In patent publication US12414960B2, “Analogues of oleuropein and oleacein and uses thereof” (Attica Sciences Ltd., priority 2020, dated 2025):
pIC50: −log10 of the molar value.

Experiments:
[1] = target: ACLY (Homo sapiens, UniProt P53396); conditions: description of the Tocris compound; read-out: IC50 as ACLY inhibitor; cited from earlier work
[2] = tested on: MCF-7 ER+ breast cancer cells; assay: XTT cell growth assay, MCF-7 ER+; format: cell-based, human; conditions: NS = not statistically significant
In short: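 MCF-7 ER+ cells grown 24 h in DMEM, then given 5, 10 or 50 μM compound in serum-free DMEM for 24 h. XTT reagent added for 4 h. Absorbance read at 450 nm with 630 nm reference; serum-free DMEM alone as negative control.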

[3] = tested on: IL-6; assay: ELISA of IL-6 in PMA/LPS-treated THP-1 cells; format: cell-based, human; conditions: THP-1, PMA then LPS 100 ng/ml 24 hours, 5 uM compound added 2 hours before LPS
Experimental: (§1) Human monocytes (THP-1, ATCC) were cultured in RPMI 1640 media supplemented with HEPES buffer (10 mM), sodium pyruvate (1 mM), glucose (4.5 g/L), fetal bovine serum (10%), penicillin (100 U/mL), streptomycin (100 μg/mL), and 2-mercaptoethanol (0.05 mM). THP-1 cells were treated with PMA (100 ng/ml) for 48 hours and then washed and rested for 24 hours in PMA-free media. These cells were treated with LPS (100 ng/ml) for 24 hours in the presence or absence of 5 uM of […] compounds (added 2 hours before LPS). Cell culture supernatants were collected and IL-1β (cat. No DLB50, R&D Systems), TNF-α (cat. no. DTA00D, R&D Systems) and IL-6 (cat. No D6050, R&D Systems) protein levels were evaluated by ELISA assay.

[4] = tested on: pACLY (S455); assay: ELISA of pACLY (S455) / ACLY enzymatic activity in PANC-1 cells; format: cell-based, human; conditions: 5 μM
Experimental: ELISA assay was used to evaluate the effect of GS compounds on protein activity levels in PANC-1 cancer cells. PANC-1 cells were serum-starved overnight and then treated with rIGF1 (100 ng/mL) for 24 hours, with or without GS27 (5 μM). The levels of the following proteins were evaluated by ELISA assay: a) p70 S6 (T389) (cat no. 54164C, Cell Signaling); b) pAKT (S473), (cat no. 80895, Cell Signaling); c) pACLY (S455), (cat no. okag1672, Avivasysbio); d) pAMPK (T172) (cat no. 7959C, Cell Signaling) and e) p65/NFKB (S536), (cat no. 7173, Cell Signaling).
PANC-1 is a human pancreatic ductal adenocarcinoma cell line derived from the carcinoma of a person.
The molecular mechanism of action of GS27, a compound that has exerted potent anti-cancer activity in different cancer cell lines including pancreatic cancer cells, was investigated. Oleacein has been implicated to have anti-inflammatory and metabolic effects, thus the potential effects of GS27 in different metabolic and inflammatory pathways were evaluated. Specifically, the protein levels of p70 S6 (T389), pAKT (S473), pACLY (S455), pAMPK (T172) and p65/NFKB (S536) were evaluated by ELISA assay in PANC-1 pancreatic cancer cells treated with 5 μM GS27. GS27 reduced p70 S6 and AKT phosphorylation levels, while it increased AMPK phosphorylation.
The effects of different GS compounds on ACLY enzymatic activity were evaluated by ELISA assay in PANC-1 pancreatic cancer cells. […] This finding is unexpected, since GS21 has a very similar structure with GS27, with the only difference being the presence of an oxygen atom in ester GS21 instead of a sulfur atom in thioester GS27.

[5] = tested on: TNF-α; assay: ELISA of TNF-α in PMA/LPS-treated THP-1 cells; format: cell-based, human; conditions: THP-1, PMA then LPS 100 ng/ml 24 hours, 5 uM compound added 2 hours before LPS
Experimental: as §1

[6] = Deoxyribose degradation assay (hydroxyl radical scavenging); format: biochemical; conditions: NS = not statistically significant
In short: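 Hydroxyl radicals from Fenton's reaction degrade 2-deoxyribose. Scavenging is measured as inhibition of this oxidation, read spectrophotometrically as pink chromogen absorbance at 532 nm.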

[7] = tested on: IL-1β; assay: ELISA of IL-1β in PMA/LPS-treated THP-1 cells; format: cell-based, human; conditions: THP-1, PMA then LPS 100 ng/ml 24 hours, 5 uM compound added 2 hours before LPS
Experimental: as §1

[8] = after olive oil consumption, literature; cited from earlier work
[9] = tested on: HepG2 liver cancer tumor; assay: HepG2 xenograft mouse model; format: in vivo, nu/nu mice; conditions: 20 mg/kg i.p. every 5 days, until 20 days post-treatment
Experimental: The effect of GS27 on liver cancer tumor growth in mice was evaluated in a HepG2 xenograft mouse model. HepG2 is a human liver cancer cell line, obtained from ATCC (cat. No HB-8065). Since hepatocellular carcinoma is often treated with the chemotherapeutic agent doxorubicin and embolization, results were compared to those obtained with doxorubicin.
Xenograft tumors were generated by injecting HepG2 liver cancer cells (2.5×10^6) into the right flank of female nu/nu mice (Charles River Laboratories). All mice developed tumors in 10 days with size of approximately 100 mm3. For each experiment, mice were randomly distributed into equal groups (4 mice per group) that were untreated, or treated by intraperitoneal injections every 5 days with 20 mg/kg GS27 or doxorubicin. Tumor volume (average, SD) was evaluated until 20 days post-treatment.

[10] = tested on: LNCaP prostate cancer cells; conditions: literature; cited from earlier work

Chain of ACLY (P53396 whole entry): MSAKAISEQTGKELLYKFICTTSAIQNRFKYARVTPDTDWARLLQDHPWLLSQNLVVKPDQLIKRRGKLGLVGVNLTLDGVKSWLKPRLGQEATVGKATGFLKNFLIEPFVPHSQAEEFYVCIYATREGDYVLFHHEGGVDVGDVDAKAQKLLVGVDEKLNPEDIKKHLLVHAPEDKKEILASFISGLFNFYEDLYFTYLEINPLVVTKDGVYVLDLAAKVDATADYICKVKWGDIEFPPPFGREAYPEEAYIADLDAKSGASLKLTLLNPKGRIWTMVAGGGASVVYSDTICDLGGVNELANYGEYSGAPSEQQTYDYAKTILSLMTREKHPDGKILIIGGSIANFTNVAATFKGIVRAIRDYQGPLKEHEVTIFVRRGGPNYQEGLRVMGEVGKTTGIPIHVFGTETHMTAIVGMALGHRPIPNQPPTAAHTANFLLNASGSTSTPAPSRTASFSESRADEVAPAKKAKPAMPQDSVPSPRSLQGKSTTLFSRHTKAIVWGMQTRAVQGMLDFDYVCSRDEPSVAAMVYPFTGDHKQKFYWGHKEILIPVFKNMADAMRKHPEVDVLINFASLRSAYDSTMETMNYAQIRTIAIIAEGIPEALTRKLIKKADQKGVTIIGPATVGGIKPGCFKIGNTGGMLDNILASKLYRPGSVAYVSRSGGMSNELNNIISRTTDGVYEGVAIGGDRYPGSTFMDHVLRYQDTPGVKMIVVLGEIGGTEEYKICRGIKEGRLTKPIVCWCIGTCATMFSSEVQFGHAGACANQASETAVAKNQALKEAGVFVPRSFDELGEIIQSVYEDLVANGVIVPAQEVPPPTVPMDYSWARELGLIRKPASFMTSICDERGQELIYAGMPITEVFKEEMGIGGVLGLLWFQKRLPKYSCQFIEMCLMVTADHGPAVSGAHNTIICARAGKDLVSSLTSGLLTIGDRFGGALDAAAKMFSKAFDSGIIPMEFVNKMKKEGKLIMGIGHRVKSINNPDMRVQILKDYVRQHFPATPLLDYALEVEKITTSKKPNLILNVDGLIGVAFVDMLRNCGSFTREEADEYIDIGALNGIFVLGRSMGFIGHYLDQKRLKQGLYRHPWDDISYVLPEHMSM

In the case of COc1ccc(-c2ccccc2)cc1NS(=O)(=O)c1cc(Cl)cc(Cl)c1O [BMS303141], the pIC50 [1] is given as 6.89.

For C/C=C(/C=O)[C@@H](CC=O)CC(=O)OCc1cc2ccccc2[nH]1 [GS25, (3S,4E)-4-formyl-3-(2-oxoethyl)-4-hexenoic acid (1H-indol-2-yl)methyl ester], the “Effectiveness to suppress MCF7 cell growth (cell growth inhibition)” value ([2]; 50 uM, 24 h) was “best efficacy”, the inhibition at 50 µM ([2]; Homo sapiens, MCF7, 24 h, read-out: Effectiveness to suppress MCF7 cell growth (cell growth inhibition)) was 88.4% and the IL-6 protein levels [3] was “effective for reducing”. The “ACLY enzymatic activity (ELISA)” value [4] was “small effect”, the TNF-α protein levels [5] was “better effect on the suppression” and the “Deoxyribose Degradation Assay IC50” value [6] was 16.2 μg extract/mL. The IL-1β protein levels [7] was “reducing substantially”.

In the case of OCCc1ccc(O)c(O)c1 [Hydroxytyrosol], the “time of peak plasma levels after ingestion” value [8] is given as 1 h.

With COc1cccc2c1C(=O)c1c(O)c3c(c(O)c1C2=O)C[C@@](O)(C(=O)CO)C[C@@H]3O[C@H]1C[C@H](N)[C@H](O)[C@H](C)O1 [doxorubicin, reference compound] the “reduction in the tumor size, HepG2 liver cancer” value [9] was 13%.

For CNC(=O)c1ccc(N2C(=S)N(c3ccc(C#N)c(C(F)(F)F)c3)C(=O)C2(C)C)cc1F [enzalutamide], the “concentration found to reduce LNCaP prostate cancer cell growth” value [10] is listed as 10 µM.

For OCCc1ccc(O)cc1 [tyrosol], the “time of peak plasma levels after ingestion” value [8] is listed as 1 h.
